A short description of series [1]: Unidirectional Caco-2 cell permeability assay. The series is classed as in vitro ADME. Conditions: human, apical pH 6.5, basolateral pH 7.4, 1 hour, 37° C., n=2. Here is the method: Caco-2 cells (ECACC) were seeded onto 24-well Transwell plates at 2×10^5 cells per well and used in confluent monolayers after a 21 day culture at 37° C. under 500 CO2. Test compounds were incubated at 10 μM, 0.2% DMSO final, n=2 in assay buffer (Hanks balanced salt solution supplemented with 25 mM HEPES, adjusted to pH 6.5). Hanks balanced salt solution supplemented with 25 mM HEPES, adjusted to pH 7.4 (0.2% DMSO final) was used for the basolateral chamber (as receiver).
Incubations were performed at 37° C., with samples removed from both donor and acceptor chambers at T=0 and 1 hour and compound analysed by mass spectrometry (LC-MS/MS) including an analytical internal standard ([…] carbamazepine).
Apparent permeability (Papp) values are shown in Table 3 and were determined from the relationship:
Where V is the volume of each Transwell compartment (apical 125 μL, basolateral 600 μL), and concentrations are the relative MS responses for compound (normalized to internal standard) in the donor chamber before incubation and acceptor chamber at the end of the incubation Area=area of cells exposed for drug transfer (0.33 cm^2).
Lucifer Yellow (LY) was added to the apical buffer in all wells to assess viability of the cell layer. As LY cannot freely permeate lipophilic barriers, a high degree of LY transport indicates poor integrity of the cell layer and wells with a LY Papp>10×10^−6 cm/s were rejected.
Compound recovery from the wells was determined from MS responses (normalized to internal standard) in donor and acceptor chambers at the end of incubation compared to response in the donor chamber pre-incubation.
A general note: Caco-2 cells form a polarised layer with tight junctions and transporters.

The next series has as its target T1, human EP4 (Homo sapiens, UniProt P35408).
T1 construct: expressed in transfected cells; host or cells: HEK293 cells transduced with EP4 BacMam baculovirus
Briefly: cAMP Gs functional assay (HTRF cAMP dynamic-2) in EP4-transfected HEK293 cells. Format: cell-based. Particulars: HEK293 cells transfected with EP4 BacMam virus; for EC50: 30 min at 37° C., HTRF cAMP, read-out: cAMP human EP4 pEC50 (converted); for cAMP human EP4 Emax: positive control PGE2. Here is the method:
Cloning, Baculovirus generation, large scale infection of HEK293 cells and membrane preparation: Human prostaglandin E2 receptor 4 (EP4) was cloned into pBacMam expression vector (GeneScript, UK). Transposition of EP4 DNA was performed using Invitrogen's Bac-to-Bac Baculovirus Expression Systems. P0 baculovirus was generated by transfecting SF9 Cells with bacmid DNA using Cellfectin II transfection reagent (ThermoFisher Scientific, UK). Following P0 generation P1 virus was then generated ready for large scale infection and membrane preparation. HEK293 cells were grown in DMEM (ThermoFisher Scientific, UK), supplemented with 10% heat inactivated fetal bovine serum (FBS). Cells were infected at a seeding density of 3.5 million cells/mL in 500 cm^3 flasks at 5% v/v EP4 Bacman. Expression was carried out over a 36 hour period at 37° C. with 5% CO2. The cells were removed using PBS and a cell scrapper. The cell culture was centrifuged at 2500 RPM for 10 mins at 4° C. The supernatant was then poured off and the pellet stored at −80° C. The pellet was defrosted and re-suspended in 15 mL of homogenising buffer (20 mM HEPES, 10 mM EDTA, pH 7.4). Then homogenised in mechanical homogeniser (VMR) for 10 seconds. The membrane was centrifuged in centrifuge tubes at 40,000 g for 15 mins at 4° C. The supernatant was poured away and re-suspended in 15 mL of homogenising buffer and homogenised for 20 seconds. The membrane was then centrifuged at 40,000 g for 45 mins at 4° C. The membrane was then re-suspended in 3 mL of storage buffer (20 mM HEPES, 0.1 mM EDTA, pH 7.4) mixing well. The resulting membranes were then stored at −80° C.
cAMP Gs Functional Assay: cAMP production following EP4 receptor activation was determined using the Homogeneous Time-Resolved Fluorescence (HTRF) cAMP dynamic-2 assay (Cisbio, France). HEK293 cells were transfected using a 0.5% EP4 Bacman virus for 36 hours, before dissociating the cells, and freezing at −150° C.
On the day of testing, increasing concentration of test compounds, alongside positive controls ([…] PGE2 (Tocris, Abingdon, UK)) and negative control (DMSO (Sigma-Aldrich, UK) were added to a ProxiPlate-384 Plus, White 384-shallow well Mircoplate, (PerkinElmer, USA) using the ECHO dispense.
Cells were defrosted in a water bath and resuspended in DMEM supplemented with 10% FBS before centrifuging at 1200 RPM for 5 mins to form a pellet. The pellet was resuspended in assay buffer (DMEM+0.5 mM IBMX (Tocris, Abingdon, UK)) to 0.5×10^6 cells/mL. Cell suspension, for a final assay concentration of 5000 cell/well was added using the multidrop to the pre-dispensed assay plate. The plate was then incubated at 37° C. for 30 mins, with 5% CO2. The cAMP production was determined as manufacturer's instructions, before plates were read on a PheraStar fluorescence plate reader (BMG LabTech, Germany).

The structures appear in SMILES notation.

In general, Papp A→B refers to how fast a substance crosses the layer from the apical side. High values mean ready permeation, low ones poor permeation.

T1 sequence (P35408 whole entry): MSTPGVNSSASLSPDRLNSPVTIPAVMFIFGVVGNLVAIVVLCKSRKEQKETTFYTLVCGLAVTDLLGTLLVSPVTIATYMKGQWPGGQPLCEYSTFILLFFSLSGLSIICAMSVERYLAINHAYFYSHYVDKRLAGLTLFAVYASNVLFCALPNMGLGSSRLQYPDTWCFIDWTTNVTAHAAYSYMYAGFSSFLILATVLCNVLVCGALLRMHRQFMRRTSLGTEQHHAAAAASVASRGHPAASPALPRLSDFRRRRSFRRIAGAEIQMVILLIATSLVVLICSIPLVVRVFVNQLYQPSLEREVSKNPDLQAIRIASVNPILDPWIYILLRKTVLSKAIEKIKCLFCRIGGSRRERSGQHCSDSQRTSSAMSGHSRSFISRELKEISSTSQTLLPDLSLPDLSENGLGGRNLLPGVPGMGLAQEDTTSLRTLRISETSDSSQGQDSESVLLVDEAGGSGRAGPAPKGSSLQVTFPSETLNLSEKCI

Turning to `Cc1cc(C(N)=O)ccc1-c1cccc(CN2CCC[C@@H]2C(=O)NCc2ccc(C(=O)O)c(O)c2)c1` [Example 15, (R)-4-((1-((4′-carbamoyl-2′-methyl-[1,1′-biphenyl]-3-yl)methyl)pyrrolidine-2-carboxamido)methyl)-2-hydroxybenzoic acid], the Papp A→B at 1 h, 10 μM in series [1] was less than 0.1 ×10⁻⁶ cm/s. For the same molecule, on human EP4, the EC50 was 31.6 nM and the cAMP human EP4 Emax worked out at 96%.

Turning to `Cc1cc(S(N)(=O)=O)ccc1-c1cccc(CN2CCC[C@@H]2C(=O)NCc2ccc(C(=O)O)c(O)c2)c1` [Example 16, (R)-2-hydroxy-4-((1-((2′-methyl-4′-sulfamoyl-[1,1′-biphenyl]-3-yl)methyl)pyrrolidine-2-carboxamido)methyl)benzoic acid], in series [1], the apparent permeability from apical to basolateral (Papp A→B) at 1 h, 10 μM was found to be 0.17 ×10⁻⁶ cm/s. On human EP4, the EC50 is 20 nM and the cAMP human EP4 Emax was determined as 98%.

The molecule `Cc1cc(S(N)(=O)=O)ccc1-c1cccc(CN2CCC[C@@H]2C(=O)N[C@@H](C)c2ccc(C(=O)O)c(O)c2)c1` [Example 18, 2-hydroxy-4-((S)-1-((R)-1-((2′-methyl-4′-sulfamoyl-[1,1′-biphenyl]-3-yl)methyl)pyrrolidine-2-carboxamido)ethyl)benzoic acid] registered a Papp A→B at 1 h, 10 μM in series [1] of 0.11 ×10⁻⁶ cm/s. Also, on human EP4, the EC50 is 3.16 nM and the cAMP human EP4 Emax worked out at 95%.

On to `C[C@H](NC(=O)[C@H]1CCCN1Cc1ccc(O)c(-c2ccc(S(N)(=O)=O)cc2)c1)c1ccc(C(=O)O)cc1` [Example 19], for which, in series [1], the apparent permeability from apical to basolateral (Papp A→B) at 1 h, 10 μM was less than 0.12 ×10⁻⁶ cm/s. Also, on human EP4, the EC50 was 100 nM and the cAMP human EP4 Emax came to 90%.

In turn, `Cc1cc(S(N)(=O)=O)ccc1-c1cc(O)cc(CN2CCC[C@@H]2C(=O)N[C@@H](C)c2ccc(C(=O)O)cc2)c1` [Example 20, 4-((S)-1-((R)-1-((5-hydroxy-2′-methyl-4′-sulfamoyl-[1,1′-biphenyl]-3-yl)methyl)pyrrolidine-2-carboxamido)ethyl)benzoic acid] came in with a Papp A→B at 1 h, 10 μM in series [1] of less than 0.1 ×10⁻⁶ cm/s. Also, on human EP4, the EC50 was 0.631 nM and the cAMP human EP4 Emax was 98%.

Turning to `Cc1cc(C(N)=O)ccc1-c1cc(O)cc(CN2C[C@H](O)C[C@@H]2C(=O)N[C@@H](C)c2ccc(C(=O)O)cc2)c1` [Example 21, 4-((S)-1-((2R,4R)-1-((4′-carbamoyl-5-hydroxy-2′-methyl-[1,1′-biphenyl]-3-yl)methyl)-4-hydroxypyrrolidine-2-carboxamido)ethyl)benzoic acid], the Papp A→B at 1 h, 10 μM in series [1] is less than 0.11 ×10⁻⁶ cm/s. Further, on human EP4, the EC50 is 7.94 nM and the cAMP human EP4 Emax was 96%.

In turn, `C[C@H](NC(=O)[C@H]1CCCN1Cc1cccc(-c2ccc(S(N)(=O)=O)cc2O)c1)c1ccc(C(=O)O)cc1` [Example 22] registered a Papp A→B at 1 h, 10 μM in series [1] of less than 0.1 ×10⁻⁶ cm/s. Also, at human EP4, the EC50 was 126 nM and the cAMP human EP4 Emax is 85%.

`Cc1cc(C(N)=O)ccc1-c1cc(O)cc(CN2CC3CC2(C(=O)N[C@@H](C)c2ccc(C(=O)O)cc2)C3)c1` [Example 23, (S)-4-(1-(2-((4′-carbamoyl-5-hydroxy-2′-methyl-[1,1′-biphenyl]-3-yl)methyl)-2-azabicyclo[2.1.1]hexane-1-carboxamido)ethyl)benzoic acid] displayed a Papp A→B at 1 h, 10 μM in series [1] of 0.245 ×10⁻⁶ cm/s. Further, on human EP4, the EC50 was 0.158 nM and the cAMP human EP4 Emax came out at 91%.

In the case of `Cc1cc(S(N)(=O)=O)ccc1-c1cncc(CN2CCC[C@@H]2C(=O)N[C@@H](C)c2ccc(C(=O)O)cc2)c1` [Example 24, 4-((S)-1-((R)-1-((5-(2-methyl-4-sulfamoylphenyl)pyridin-3-yl)methyl)pyrrolidine-2-carboxamido)ethyl)benzoic acid], the Papp A→B at 1 h, 10 μM in series [1] was 0.16 ×10⁻⁶ cm/s. Besides, at human EP4, the EC50 was 25.1 nM and the cAMP human EP4 Emax amounted to 99%.

Take `Cc1cc(S(N)(=O)=O)ccc1-c1cccc(CN2CC3CC2(C(=O)NC2(c4ccc(C(=O)O)cc4)CC2)C3)c1` [Example 27, 4-(1-(2-((2′-methyl-4′-sulfamoyl-[1,1′-biphenyl]-3-yl)methyl)-2-azabicyclo[2.1.1]hexane-1-carboxamido)cyclopropyl)benzoic acid]: the apparent permeability from apical to basolateral (Papp A→B) at 1 h, 10 μM in series [1] is less than 0.28 ×10⁻⁶ cm/s. On human EP4, the EC50 was 6.31 nM and the cAMP human EP4 Emax was determined as 85%.

As to `Cc1cc(C(N)=O)ccc1-c1cccc(CN2CC3CC2(C(=O)N[C@@H](C)c2ccc(C(=O)O)cc2)C3)c1` [Example 28, (S)-4-(1-(2-((4′-carbamoyl-2′-methyl-[1,1′-biphenyl]-3-yl)methyl)-2-azabicyclo[2.1.1]hexane-1-carboxamido)ethyl)benzoic acid], the apparent permeability from apical to basolateral (Papp A→B) at 1 h, 10 μM in series [1] is less than 0.12 ×10⁻⁶ cm/s. For the same molecule, on human EP4, the EC50 is 25.1 nM and the cAMP human EP4 Emax turned out to be 76%.

In series [1], `Cc1cc(C(N)=O)ccc1-c1cccc(CN2CC3CC2(C(=O)NC2(c4ccc(C(=O)O)cc4)CC2)C3)c1` [Example 29, 4-(1-(2-((4′-carbamoyl-2′-methyl-[1,1′-biphenyl]-3-yl)methyl)-2-azabicyclo[2.1.1]hexane-1-carboxamido)cyclopropyl)benzoic acid] had a Papp A→B at 1 h, 10 μM of less than 0.11 ×10⁻⁶ cm/s. Further, at human EP4, the EC50 was 6.31 nM and the cAMP human EP4 Emax amounted to 91%.

In series [1], `Cc1cc(S(N)(=O)=O)ccc1-c1cccc(CN2CCC[C@@H]2C(=O)NC2(c3ccc(C(=O)O)cc3)CC2)c1` [Example 30, (R)-4-(1-(1-((2′-methyl-4′-sulfamoyl-[1,1′-biphenyl]-3-yl)methyl)pyrrolidine-2-carboxamido)cyclopropyl)benzoic acid] yielded a Papp A→B at 1 h, 10 μM of 0.29 ×10⁻⁶ cm/s. Besides, on human EP4, the EC50 was 0.501 nM and the cAMP human EP4 Emax worked out at 99%.

On to `Cc1cc(C(N)=O)ccc1-c1cccc(CN2CCC[C@@H]2C(=O)NC2(c3ccc(C(=O)O)cc3)CC2)c1` [Example 31, (R)-4-(1-(1-((4′-carbamoyl-2′-methyl-[1,1′-biphenyl]-3-yl)methyl)pyrrolidine-2-carboxamido)cyclopropyl)benzoic acid], for which the Papp A→B at 1 h, 10 μM in series [1] amounted to 0.45 ×10⁻⁶ cm/s. In addition, at human EP4, the EC50 was 0.02 nM and the cAMP human EP4 Emax was 98%.

Molecule `Cc1cc(O)ccc1-c1cc(O)cc(CN2CCC[C@@H]2C(=O)N[C@@H](C)c2ccc(C(=O)O)cc2)c1` [Example 33, 4-((S)-1-((R)-1-((4′,5-dihydroxy-2′-methyl-[1,1′-biphenyl]-3-yl)methyl)pyrrolidine-2-carboxamido)ethyl)benzoic acid] gave an apparent permeability from apical to basolateral (Papp A→B) at 1 h, 10 μM in series [1] of 0.32 ×10⁻⁶ cm/s. For the same molecule, on human EP4, the EC50 was 0.0316 nM and the cAMP human EP4 Emax turned out to be 97%.

`Cc1cc(C(N)=O)ccc1-c1cc(O)cc(CN2CCC[C@@H]2C(=O)N[C@@H](C)c2ccc(C(=O)O)c(O)c2)c1` [Example 34, 4-((S)-1-((R)-1-((4′-carbamoyl-5-hydroxy-2′-methyl-[1,1′-biphenyl]-3-yl)methyl)pyrrolidine-2-carboxamido)ethyl)-2-hydroxybenzoic acid] gave an apparent permeability from apical to basolateral (Papp A→B) at 1 h, 10 μM in series [1] of 0.24 ×10⁻⁶ cm/s. On human EP4, the EC50 was 0.2 nM and the cAMP human EP4 Emax came out at 100%.

(Values after patent publication US20260042745A1, “PYRROLIDINE-2-CARBOXAMIDE DERIVATIVES AS PROSTAGLANDIN E2 RECEPTOR 4 (EP4) AGONISTS FOR THE TREATMENT OF GASTROINTESTINAL AND PULMONARY DISEASES” (NXERA PHARMA UK LIMITED, priority 2022, published 2026).)
